Measurements taken from patent US11229635B2, “Method of treating fibrosis” (BCN Biosciences L.L.C., priority 2016, dated 2022).

Legend:
[1] = system: canonical Wnt-β catenin signaling; experiment: TCF/LEF luciferase reporter assay in HEK293 cells; assay type: cell-based; conditions: 10 mM, 24 h, positive control
Procedure: LiCl (10 mM) treatment was used as positive control for luciferase activity. Luciferase activity was determined after 24 h using a Dual-Luciferase® Reporter Assay System (Promega) as per manufacturer's protocol. HEK293 cells containing a FOPFlash construct were used as a negative control.

[2] = system: cancer cell lines (leukemia, breast, CNS, colon, melanoma, non-small cell lung, ovarian, prostate, renal); experiment: NCI cancer cell line growth screen (percent growth over 48 h, sulforhodamine B); assay type: cell-based
[3] = system: bone marrow hematopoietic stem cells (HSCs); experiment: Total body irradiation survival (hematopoietic suppression); assay type: in vivo, C3H/HeN mice; conditions: 7.75 Gy TBI, 30 day; male 50 mg/kg, female 25 mg/kg C3H/HeN mice
Procedure: FIG. 8A-C: (A) Kaplan Meier Plot of Male C3H/HeN mice 7.75Gy 30 Day TBI (n=30) 50 mg/kg BCN057. (B). Kaplan Meier Plot of Female C3H/HeN mice 7.75Gy 30 Day TBI (n=10) 25 mg/kg BCN057. (C) Cytokine Profile in Plasma Male C3H/HeN mice 7.75Gy TBI Day 8 receiving BCN057.
7.75 Gy radiation is used to ablate bone marrow hematopoietic stem cells (HSCs) in these strains of mice. […] Lethality from bone marrow suppression occurs in the 14-25 day region due to the life cycle of approximately 2 weeks for RBC and inability to replace them without HSCs
7.73 Gy radiation is used to ablate bone marrow HSCs in the C3H strain of mice.

hematopoietic system = experiment: Recovery of the hematopoietic system following 6 Gy irradiation; assay type: in vivo; conditions: C3H mice, s.c. at 24, 48, 72, 96, and 120 hrs
Description: Recovery of the hematopoietic system following 6 Gy irradiation of C3H mice (n=4) with BCN057 treatment (s.c.) at 24, 48, 72, 96, and 120 hrs. RBC- red blood cells (M/uL), HB-hemoglobin (g/dL), and HCT-hematocrit (%). B: recovery of the hematopoietic system following 6 Gy irradiation of C3H mice (n=4) with BCN057 treatment (s.c.) at 24, 48, 72, 96, and 120 hrs. WBC-white blood cells, NE-neutrophils, LY-lymphocytes. C: platelet (PLT) recovery following 6 Gy irradiation of C3H mice (n=4) with BCN057 treatment (s.c.) at 24,48,72,96, and 120 hrs; p<0.05 with a 1-tail, Student t-test.

plasma cytokines = experiment: Mouse Cytokine panel ELISA Array of plasma after irradiation; assay type: in vivo; conditions: irradiated mice (7 G), 200 mg/kg SC Day 1 to 7, blood Day 8
Procedure: Mice were irradiated on Day 0. Animals were dosed with drug for 7 consecutive days (Day 1 to 7) at 200 mg/kg SC, with terminal blood collection on Day 8. Plasma from 3 mice was pooled for each condition Y axis represents relative absorbance units.
The plasma was tested with the Mouse Cytokine panel ELISA Array panel—by SIGNOSIS™

blood platelets = experiment: Platelet count in normal mice; assay type: in vivo, mouse; conditions: eight days oral or subcutaneous, 75-800 mg/kg/day
Procedure: Normal mice were treated with BCN057 for eight days by oral administration or subcutaneous injection. Dose groups included 75 mg/kg/day, 200 mg/kg/day, 400 mg/kg/day, 500 mg/kg/day, and 800 mg/kg/day

[4] = Solubility of BCN057 in aqueous formulations; assay type: physicochemical
Procedure: Several formulations were developed to solubilize BCN057 in aqueous solution at physiologically compatible pHs. These include 100 mM methanesulfonic acid/10% povidone (PVP); 100 mM MSA/2% benzyl alcohol/2% N-methylpyrrolidone (NMP); and, 100 mM MSA/10% ethanol/1% Poloxamer 188.
Several suitable formulations were developed for intravenous, subcutaneous and oral delivery of therapeutic levels of BCN057. These include 30 wt % Captisol (SBE-beta-CD) and 100 mM MSA at pH 4.1 (adjusted with 1.0 N NaOH).

[5] = system: radiation dermatitis (erythema, edema); experiment: Draize scoring of dermal radiation sites, dermal dosing 10 mg/mL Day 0 to 6; assay type: in vivo; conditions: Avg of Days 1-6 and 8

## [Cl-].[Li+] [LiCl, reference compound]
[1]
  luciferase activity: significantly increased luciferase activity

## COc1ccc2cc(-c3nc4ccc(C)cn4c3NCc3ccco3)c(=O)[nH]c2c1 [BCN057, 3-(3((furan-2-ylmethyl)ammo)-6-methylimidazo[1,2-α]pyridine-2-yl)-6-methoxyquinolin-2(1H)-one]
[2]; 10 uM, 48 h, Leukemia, prostate and kidney cancer
  cancer cell growth vs control (no drug): inhibitory
[2]; breast cancer, lung carcinoma, prostate, CNS, melanoma, ovarian, renal and colon cancer lines (FIG. 2)
  cancer cell growth vs untreated control: susceptible
[3]
  lethality from bone marrow suppression: sufficient to prevent lethality from bone marrow suppression
Hematopoietic system
  hematopoietic recovery (RBC, HB, HCT, WBC, NE, LY, PLT): evidence of improving hematopoietic recovery
Plasma cytokines
  plasma cytokine profile: restores the cytokine profile to similar to that of the control
Blood platelets
  platelet production: induces platelet production in a dose dependent fashion
[4]; 30 wt % Captisol (SBE-beta-CD) and 100 mM MSA, up to pH 4.1
  solubility: excellent solubility
[4]; addition of 100 mM lactic acid to the MSA mixtures
  solubility: improved solubility
[5]
  Average Draize score Edema: 0
  Average Draize score Edema Site 2: 0
  Average Draize score Edema Site 3: 0.5714
  Average Draize score Edema Site 4: 0
  Average Draize score Edema Site 5: 0.4286
  Average Draize score Edema Site 6: 0
  Average Draize score Erythema Site 2: 0.1429
  Average Draize score Erythema Site 3: 1.286
  Average Draize score Erythema Site 4: 0.1429
  Average Draize score Erythema Site 5: 1.429
  Average Draize score Erythema Site 6: 0.4286
